# Experimental data: ChEMBL document CHEMBL1143751, “Isosteric probes provide structural requirements essential for detoxification of the phytoalexin brassinin by the fungal pathogen Leptosphaeria maculans” (2007)
# The source made the active and inactive calls. The rule behind the calls is not given here.
# Experiments:
# [1] = system: Plenodomus lingam; assay: Specific activity of Leptosphaeria maculans brassinin oxidase
# [2] = system: Plenodomus lingam; assay: Antifungal activity against Leptosphaeria maculans BJ 125 at 0.50 mM; assay type: functional
# [3] = system: Plenodomus lingam; assay: Antifungal activity against Leptosphaeria maculans BJ 125 at 0.20 mM; assay type: functional
# [4] = system: Plenodomus lingam; assay: Antifungal activity against Leptosphaeria maculans BJ 125 at 0.10 mM; assay type: functional
Compound,Activity [1],inhibition at 500 µM [2] [%],inhibition at 200 µM [3] [%],Activity [4],inhibition at 100 µM [4] [%]
CSC(=S)NCc1c[nH]c2ccccc12 [BRASSININ],835 mU/mg,100,45,inactive,–
COC(=O)NCc1c[nH]c2ccccc12,4060 mU/mg,–,–,–,–
CC(=O)NCc1c[nH]c2ccccc12,inactive,–,–,–,–
COC(=O)N(C)Cc1c[nH]c2ccccc12,inactive,–,–,–,–
CNC(=O)CCc1c[nH]c2ccccc12,inactive,–,–,–,–
CNC(=O)NCc1c[nH]c2ccccc12,3280 mU/mg,–,–,–,–
CSC(=S)NCc1cn(C)c2ccccc12,944 mU/mg,–,–,–,–
CNC(=S)NCc1c[nH]c2ccccc12,2560 mU/mg,–,–,–,–

# Now from value to molecule, other results behind:
Activity [1],Compound,inhibition at 500 µM [2] [%],inhibition at 200 µM [3] [%],Activity [4],inhibition at 100 µM [4] [%]
inactive,CCCSC(=S)NCc1c[nH]c2ccccc12,100,100,–,78
434 mU/mg,CCSC(=S)NCc1c[nH]c2ccccc12,100,76,–,28
2150 mU/mg,CSC(=O)NCc1c[nH]c2ccccc12,–,–,–,–
inactive,CSC(=S)N(C)Cc1c[nH]c2ccccc12,100,100,–,74
inactive,COC(=O)CCc1c[nH]c2ccccc12,–,–,–,–
inactive,CSC(=S)NCCc1c[nH]c2ccccc12,–,–,–,–
inactive,CSC(=S)OCCc1c[nH]c2ccccc12,–,–,–,–
